Among the data in the supplement of paper PMC11061612 are Bliss excess values, retold here.

Common to all, as to assay: Bliss excess, mean over the matrix (fraction); higher = more synergy
Assay [1] has as its system OV-56 (Ovarian Carcinoma). Put shortly:
(§1)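 Cell lines in DMEM/F12 or RPMI with 10% FBS were plated in 1536-well plates, held 24 hours at 37°C, 5% CO2, then given two-drug dose matrices for 72 hours (DMSO typically 0.2%). Viability was read by CellTiter-Glo 2.0 luminescence and scaled as inhibition from 0 (vehicle wells) to 1 (blank wells). Combination Emax is the second-highest inhibition in the matrix; Bliss excess is observed combination effect minus expected EA + EB − EA·EB, EA and EB being single-agent effects.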

For assay [2], the system named is CAL-72 (Osteosarcoma). In a few lines: as §1
Assay [3] deals with NCI-H524 (Small Cell Lung Carcinoma). In a few lines: as §1
The subject of assay [4] is L-428 (Hodgkin's Lymphoma). Put shortly: as §1
Assay [5] concerns HH (T-Cell Non-Hodgkin's Lymphoma). Put shortly:
as §1

The subject of assay [6] is NCI-H2722 (Mesothelioma). Put shortly: as §1
Assay [7] relates to LCLC-97TM1 (Non-Small Cell Lung Carcinoma). Put shortly:
as §1

Assay [8] concerns NCI-H2052 (Mesothelioma). Put shortly: as §1
The subject of assay [9] is MPP-89 (Mesothelioma). In a few lines:
as §1

Assay [10] relates to BPH-1 (Non-Cancerous). In a few lines:
as §1

Assay [11] deals with HuCCT1 (Biliary Tract Carcinoma). In a few lines: as §1
The subject of assay [12] is BE2-M17 (Neuroblastoma). In a few lines: as §1
Assay [13] has as its system BE-13 (T-Lymphoblastic Leukemia). In a few lines:
as §1

The subject of assay [14] is ALL-PO (B-Lymphoblastic Leukemia). In a few lines: as §1
Assay [15] relates to GAMG (Glioblastoma). Put shortly:
as §1

In assay [16] the test system is LS-123 (Colorectal Carcinoma). Put shortly: as §1
Assay [17] relates to HeLa (Cervical Carcinoma). In a few lines:
as §1

Assay [18] relates to SNU-449 (Hepatocellular Carcinoma). In a few lines:
as §1

Assay [19] relates to EW-11 (Ewing's Sarcoma). In a few lines:
as §1

Assay [20] deals with HuH-7 (Hepatocellular Carcinoma). Put shortly: as §1

For the compound `CC1(C)CCC(CN2CCN(c3ccc(C(=O)NS(=O)(=O)c4ccc(NCC5CCOCC5)c([N+](=O)[O-])c4)c(Oc4cnc5[nH]ccc5c4)c3)CC2)=C(c2ccc(Cl)cc2)C1` [Venetoclax] + CCN(CCO)CCCOc1ccc2c(Nc3cc(CC(=O)Nc4cccc(F)c4)[nH]n3)ncnc2c1 [AZD2811] (first compound max 1 µM, 7x7, partner max 1 µM), the Bliss excess was 0.0214 in assay [1]; -0.0984 in assay [2]; -0.0074 in [3]; 0.0178 in assay [4]; -0.0152 in assay [5]; -0.0269 in assay [6]. Moreover, the Bliss excess in [7] was -0.0053; in assay [8] it was -0.0112; in assay [9], -0.0093; in assay [10], -0.0198; in [11], -0.0062; in assay [12], 0.107. In addition, the Bliss excess was -0.0468 in assay [13]; 0.0129 in [14]; -0.0368 in [15]; -0.0437 in assay [16]; 0.0336 in assay [17]; -0.0642 in assay [18]. The Bliss excess in assay [19] was -0.0186; in assay [20], -0.0133.
`CC1(C)CCC(CN2CCN(c3ccc(C(=O)NS(=O)(=O)c4ccc(NCC5CCOCC5)c([N+](=O)[O-])c4)c(Oc4cnc5[nH]ccc5c4)c3)CC2)=C(c2ccc(Cl)cc2)C1` [Venetoclax] + CN(C)CCCOc1ccc(-c2ccc3ncc4c(c3c2)n(C2CCOCC2)c(=O)n4C)cn1 [AZD0156] (first compound max 1 µM, 7x7, partner max 1 µM): the Bliss excess was 0.0022 in assay [1]; -0.0002 in assay [2]; 0.0028 in assay [3]; -0.0057 in assay [4]; -0.0066 in assay [5]; -0.081 in [6]. The Bliss excess in assay [7] is -0.0466; in assay [8], -0.0184; in [9], -0.0182; in assay [10], -0.0214; in assay [11] it was -0.002; in assay [12], 0.0093. For the same compound, the Bliss excess in [13] is 0.0084; in assay [14] it was 0.108; in assay [15], -0.0225; in assay [16], -0.0169; in [17], -0.0178; in assay [18] it was -0.07. Besides, the Bliss excess turned out to be 0.0067 in assay [19] and 0.0028 in [20].
As to `CC1(C)CCC(CN2CCN(c3ccc(C(=O)NS(=O)(=O)c4ccc(NCC5CCOCC5)c([N+](=O)[O-])c4)c(Oc4cnc5[nH]ccc5c4)c3)CC2)=C(c2ccc(Cl)cc2)C1` [Venetoclax] + COc1cc(Nc2ncc3c(n2)-c2ccc(Cl)cc2C(c2c(F)cccc2OC)=NC3)ccc1C(=O)O [Alisertib] (first compound max 1 µM, 7x7, partner max 10 µM), the Bliss excess is 0.001 in [1]; -0.049 in assay [2]; -0.0902 in assay [3]; 0.0501 in assay [4]; -0.0223 in assay [5]; -0.0855 in assay [6]. The Bliss excess was 0.0449 in [7]; -0.0169 in [8]; -0.0556 in assay [9]; -0.0459 in assay [10]; -0.0148 in assay [11]; 0.215 in [12]. Also, the Bliss excess was -0.003 in assay [13]; 0.0529 in assay [14]; -0.0024 in assay [15]; 0.0288 in [16]; 0.0517 in assay [17]; -0.0753 in assay [18]. The Bliss excess in [19] was 0.0369; in [20] it was -0.0508.
For the compound `CC1(C)CCC(CN2CCN(c3ccc(C(=O)NS(=O)(=O)c4ccc(NCC5CCOCC5)c([N+](=O)[O-])c4)c(Oc4cnc5[nH]ccc5c4)c3)CC2)=C(c2ccc(Cl)cc2)C1` [Venetoclax] + C[C@@H]1COCCN1C2=NC(=NC(=C2)C3(CC3)[S@](=N)(=O)C)C4=C5C=CNC5=NC=C4 [AZD6738] (first compound max 1 µM, 7x7, partner max 10 µM), the Bliss excess was -0.0475 in assay [1]; -0.0313 in assay [2]; -0.0453 in [3]; 0.0164 in assay [4]; -0.0012 in assay [5]; -0.0405 in assay [6]. The Bliss excess was -0.0506 in [7]; -0.0406 in [8]; -0.0226 in assay [9]; -0.0336 in assay [10]; -0.012 in assay [11]; -0.0661 in assay [12]. Besides, the Bliss excess in assay [13] is -0.0204; in assay [14] it was 0.0306; in assay [15], -0.0727; in assay [16], -0.0395; in [17], -0.0688; in assay [18] it was -0.0239. Also, the Bliss excess was 0.0321 in assay [19] and -0.0181 in assay [20].
As to `CC1(C)CCC(CN2CCN(c3ccc(C(=O)NS(=O)(=O)c4ccc(NCC5CCOCC5)c([N+](=O)[O-])c4)c(Oc4cnc5[nH]ccc5c4)c3)CC2)=C(c2ccc(Cl)cc2)C1` [Venetoclax] + C[C@@H](Nc1cc(F)cc(F)c1)c1cc(C(=O)N(C)C)cc2c(=O)cc(N3CCOCC3)oc12 [AZD8186] (first compound max 1 µM, 7x7, partner max 3 µM), the Bliss excess in assay [1] was -0.0178; in assay [2] it was -0.0042; in assay [3] it was -0.009; in assay [4], 0.0037; in assay [5], 0.0221; in assay [6] it was -0.0546. The Bliss excess was -0.0368 in assay [7]; -0.0266 in assay [8]; -0.0096 in assay [9]; -0.0385 in [10]; -0.0383 in assay [11]; -0.0069 in [12]. The Bliss excess in [13] was -0.0369; in [14], 0.202; in assay [15], -0.0453; in assay [16] it was 0.0135; in assay [17], -0.0326; in [18] it was -0.0583. Besides, the Bliss excess in [19] is -0.0227; in [20], -0.0304.
On to `CC1(C)CCC(CN2CCN(c3ccc(C(=O)NS(=O)(=O)c4ccc(NCC5CCOCC5)c([N+](=O)[O-])c4)c(Oc4cnc5[nH]ccc5c4)c3)CC2)=C(c2ccc(Cl)cc2)C1` [Venetoclax] + Cc1cc2ncnn2cc1Nc1ncc2c(n1)n(C1CCOCC1)c(=O)n2C [AZD7648] (first compound max 1 µM, 7x7, partner max 10 µM), for which the Bliss excess is 0.0016 in [1]; -0.0713 in [2]; -0.005 in assay [3]; -0.0548 in [4]; -0.0061 in assay [5]; -0.042 in assay [6]. Also, the Bliss excess is -0.0144 in assay [7]; -0.0019 in assay [8]; 0.0173 in assay [9]; -0.0517 in [10]; -0.0609 in [11]; 0.0002 in assay [12]. In addition, the Bliss excess in assay [13] is -0.0896; in assay [14], 0.11; in assay [15] it was -0.024; in [16] it was -0.0543; in assay [17], -0.0354; in assay [18] it was -0.0699. The Bliss excess in assay [19] is 0.0082; in [20], -0.022.
`CC1(C)CCC(CN2CCN(c3ccc(C(=O)NS(=O)(=O)c4ccc(NCC5CCOCC5)c([N+](=O)[O-])c4)c(Oc4cnc5[nH]ccc5c4)c3)CC2)=C(c2ccc(Cl)cc2)C1` [Venetoclax] + Cn1cnc2c(F)c(Nc3ccc(Br)cc3Cl)c(C(=O)NOCCO)cc21 [Selumetinib] (first compound max 1 µM, 7x7, partner max 3 µM): the Bliss excess is -0.0188 in assay [1]; -0.0593 in assay [2]; -0.0392 in assay [3]; -0.0042 in assay [4]; -0.0387 in [5]; -0.0741 in [6]. Besides, the Bliss excess in assay [7] was -0.0023; in assay [8] it was -0.0126; in [9], -0.0235; in assay [10] it was 0.0055; in assay [11] it was -0.0128; in assay [12] it was -0.0116. For the same compound, the Bliss excess in assay [13] was -0.0418; in [14] it was 0.0801; in assay [15], -0.0576; in assay [16], -0.0512; in [17], -0.0369; in assay [18], -0.0609. The values for the Bliss excess in [19] and in assay [20] were -0.0583 and -0.055, respectively.
